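The compound was tested at five concentrations on cells cultured in 96-well plates, with a 48-hour exposure period. TGI: total growth inhibition.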
Assays:
Test in all cases: growth of human tumour cells (NCI), 48 h
ACHN renal = tested on: ACHN renal
OVCAR-3 ovarian = tested on: OVCAR-3 ovarian
OVCAR-4 ovarian = tested on: OVCAR-4 ovarian
SNB-75 CNS = tested on: SNB-75 CNS
HCC-2998 colon = tested on: HCC-2998 colon
OVCAR-5 ovarian = tested on: OVCAR-5 ovarian
786-0 renal = tested on: 786-0 renal
M14 melanoma = tested on: M14 melanoma
SN12C renal = tested on: SN12C renal
SF-539 CNS = tested on: SF-539 CNS
K-562 leukemia = tested on: K-562 leukemia
NCI-H23 lung = tested on: NCI-H23 lung
SK-MEL-28 melanoma = tested on: SK-MEL-28 melanoma
MDA-MB-435 = tested on: MDA-MB-435
SK-OV-3 ovarian = tested on: SK-OV-3 ovarian
NCI-H522 lung = tested on: NCI-H522 lung
SK-MEL-2 melanoma = tested on: SK-MEL-2 melanoma
LOX IMVI melanoma = tested on: LOX IMVI melanoma
HOP-62 NSCLC = tested on: HOP-62 NSCLC
SK-MEL-5 melanoma = tested on: SK-MEL-5 melanoma
NCI/ADR-RES ovarian = tested on: NCI/ADR-RES ovarian
CCRF-CEM leukemia = tested on: CCRF-CEM leukemia
SF-268 CNS = tested on: SF-268 CNS
TK-10 renal = tested on: TK-10 renal
DU-145 prostate = tested on: DU-145 prostate
MALME-3M melanoma = tested on: MALME-3M melanoma
PC-3 prostate = tested on: PC-3 prostate
UACC-62 melanoma = tested on: UACC-62 melanoma
A549 NSCLC = tested on: A549 NSCLC
COLO 205 colon = tested on: COLO 205 colon
KM12 colon = tested on: KM12 colon
MOLT-4 leukemia = tested on: MOLT-4 leukemia
UACC-257 melanoma = tested on: UACC-257 melanoma
EKVX NSCLC = tested on: EKVX NSCLC
SF-295 CNS = tested on: SF-295 CNS
T-47D breast = tested on: T-47D breast
RPMI-8226 leukemia = tested on: RPMI-8226 leukemia
SR leukemia = tested on: SR leukemia
MDA-N = tested on: MDA-N
HCT-15 colon = tested on: HCT-15 colon
SNB-19 CNS = tested on: SNB-19 CNS
HCT-116 colon = tested on: HCT-116 colon
U251 CNS = tested on: U251 CNS
IGROV1 ovarian = tested on: IGROV1 ovarian
MDA-MB-231 breast = tested on: MDA-MB-231 breast
NCI-H226 lung = tested on: NCI-H226 lung
HT29 colon = tested on: HT29 colon
BT-549 breast = tested on: BT-549 breast
HOP-92 NSCLC = tested on: HOP-92 NSCLC
NCI-H460 lung = tested on: NCI-H460 lung
OVCAR-8 ovarian = tested on: OVCAR-8 ovarian
SW-620 colon = tested on: SW-620 colon
UO-31 renal = tested on: UO-31 renal
HL-60(TB) leukemia = tested on: HL-60(TB) leukemia
HS 578T breast = tested on: HS 578T breast
A498 renal = tested on: A498 renal
RXF 393 renal = tested on: RXF 393 renal
CAKI-1 renal = tested on: CAKI-1 renal
MCF7 breast = tested on: MCF7 breast

Measured: TGI

NCCCCCNOCCCN
not listed: A498 renal | RXF 393 renal | CAKI-1 renal | MCF7 breast
> 100 µM: all other assays above

COC1C(OC(N)=O)C(O)C(Oc2ccc3c(O)c(NC(=O)c4ccc(O)c(CC=C(C)C)c4)c(=O)oc3c2C)OC1(C)C (centres undefined)
not listed: OVCAR-4 ovarian | NCI-H23 lung | NCI-H522 lung | LOX IMVI melanoma | TK-10 renal | SF-295 CNS | NCI-H226 lung | HOP-92 NSCLC | HL-60(TB) leukemia | HS 578T breast
> 100 µM: all other assays above
